According to patent US20090075921A1, “Bone/joint disease sensitivity gene and use thereof” (Riken, priority 2004, published 2009):
d = 2'-deoxy (DNA); r = 2'-OH (RNA)

Legend:
[1] = test system: NHAC; experiment: Asporin-specific siRNA transfection in NHAC, gene expression; format: cell-based, human; details: 24 hours, medium with 10 ng/ml TGF-β1
Protocol: Asporin-specific siRNA (Si9: […]; SEQ ID NO:35) was designed using an siRNA design support system in Takara Shuzo's website (http://www.takara-bio.co.jp/rnai/intro/htm). […] Cells were inoculated to a 12-well plate at 5×10^5 cells/well, and cultured in a DMEM/F12 containing 10% FBS, ITS, 10 ng/ml TGF-β1 and penicillin/streptomycin for 24 hours, and siRNA transfection was performed using TransIT-TKO (Takara Shuzo). Total RNA was extracted from the cells after 24 hours of cultivation, and examined for the expression of the type II collagen, aggrecan and TGF-β1 genes. […] Therefore, endogenous asporin was thought to negatively regulate the expression of cartilage substrate and the expression of TGF-β1 in NHAC.

[2] = test system: NHAC; experiment: Effects of SB431542 on gene expression induction by TGF-β1 in NHAC; format: cell-based, human; details: SB431542 10 μM added 30 minutes before TGF-β1 10 ng/ml, 12 hours
Protocol: A time course of the expression of the asporin gene by TGF-β1 in NHAC was examined as described below. Cells were inoculated to a 12-well plate at 1×10^5 cells/well, and cultured in a DMEM/F12 containing 10% FBS until they became confluent. The medium was exchanged with a DMEM/F12 containing 0.2% FBS, and the cells were cultured for 24 hours, after which TGF-β1 (10 ng/ml) was added, total RNA was extracted over time, and the expression levels of the asporin and GAPDH genes were examined. As a result, the expression level of the asporin gene maximized when the cells were cultured in the presence of TGF-β1 (10 ng/ml) for 12 hours, and thereafter the expression level decreased over time (FIG. 46).
In the experimental system for asporin gene expression induction by TGF-β1 used in the method described in Example 54, the effects of SB431542 (Sigma) (10 μM), an inhibitor of TGF-β1 type 1 receptor phosphorylation, on the induction of the expression of the asporin, type II collagen, aggrecan, and TGF-β1 genes (12 hours), when added 30 minutes before addition of TGF-β1 (10 ng/ml), were examined.

| Compound | expression of the type II collagen, aggrecan and TGF-β1 genes [1] | induction by TGF-β1 of the expression of the asporin, type II collagen, aggrecan, and TGF-β1 genes [2] |
| --- | --- | --- |
| UCCCUUCAGGAUUACCAGATT (siRNA; sugars from the 5' end r19 d2, backbone not given here) [asporin-specific siRNA] | significantly increased | – |
| NC(=O)c1ccc(-c2nc(-c3ccc4c(c3)OCO4)c(-c3ccccn3)[nH]2)cc1 [SB431542] | – | inhibited the induction by TGF-β1 of the expression of these genes |
